From US8691865B2 (AbbVie Inc., priority 2008, dated 2014) come the findings set out here.

Chain of human Cav2.2 (Q00975 whole entry): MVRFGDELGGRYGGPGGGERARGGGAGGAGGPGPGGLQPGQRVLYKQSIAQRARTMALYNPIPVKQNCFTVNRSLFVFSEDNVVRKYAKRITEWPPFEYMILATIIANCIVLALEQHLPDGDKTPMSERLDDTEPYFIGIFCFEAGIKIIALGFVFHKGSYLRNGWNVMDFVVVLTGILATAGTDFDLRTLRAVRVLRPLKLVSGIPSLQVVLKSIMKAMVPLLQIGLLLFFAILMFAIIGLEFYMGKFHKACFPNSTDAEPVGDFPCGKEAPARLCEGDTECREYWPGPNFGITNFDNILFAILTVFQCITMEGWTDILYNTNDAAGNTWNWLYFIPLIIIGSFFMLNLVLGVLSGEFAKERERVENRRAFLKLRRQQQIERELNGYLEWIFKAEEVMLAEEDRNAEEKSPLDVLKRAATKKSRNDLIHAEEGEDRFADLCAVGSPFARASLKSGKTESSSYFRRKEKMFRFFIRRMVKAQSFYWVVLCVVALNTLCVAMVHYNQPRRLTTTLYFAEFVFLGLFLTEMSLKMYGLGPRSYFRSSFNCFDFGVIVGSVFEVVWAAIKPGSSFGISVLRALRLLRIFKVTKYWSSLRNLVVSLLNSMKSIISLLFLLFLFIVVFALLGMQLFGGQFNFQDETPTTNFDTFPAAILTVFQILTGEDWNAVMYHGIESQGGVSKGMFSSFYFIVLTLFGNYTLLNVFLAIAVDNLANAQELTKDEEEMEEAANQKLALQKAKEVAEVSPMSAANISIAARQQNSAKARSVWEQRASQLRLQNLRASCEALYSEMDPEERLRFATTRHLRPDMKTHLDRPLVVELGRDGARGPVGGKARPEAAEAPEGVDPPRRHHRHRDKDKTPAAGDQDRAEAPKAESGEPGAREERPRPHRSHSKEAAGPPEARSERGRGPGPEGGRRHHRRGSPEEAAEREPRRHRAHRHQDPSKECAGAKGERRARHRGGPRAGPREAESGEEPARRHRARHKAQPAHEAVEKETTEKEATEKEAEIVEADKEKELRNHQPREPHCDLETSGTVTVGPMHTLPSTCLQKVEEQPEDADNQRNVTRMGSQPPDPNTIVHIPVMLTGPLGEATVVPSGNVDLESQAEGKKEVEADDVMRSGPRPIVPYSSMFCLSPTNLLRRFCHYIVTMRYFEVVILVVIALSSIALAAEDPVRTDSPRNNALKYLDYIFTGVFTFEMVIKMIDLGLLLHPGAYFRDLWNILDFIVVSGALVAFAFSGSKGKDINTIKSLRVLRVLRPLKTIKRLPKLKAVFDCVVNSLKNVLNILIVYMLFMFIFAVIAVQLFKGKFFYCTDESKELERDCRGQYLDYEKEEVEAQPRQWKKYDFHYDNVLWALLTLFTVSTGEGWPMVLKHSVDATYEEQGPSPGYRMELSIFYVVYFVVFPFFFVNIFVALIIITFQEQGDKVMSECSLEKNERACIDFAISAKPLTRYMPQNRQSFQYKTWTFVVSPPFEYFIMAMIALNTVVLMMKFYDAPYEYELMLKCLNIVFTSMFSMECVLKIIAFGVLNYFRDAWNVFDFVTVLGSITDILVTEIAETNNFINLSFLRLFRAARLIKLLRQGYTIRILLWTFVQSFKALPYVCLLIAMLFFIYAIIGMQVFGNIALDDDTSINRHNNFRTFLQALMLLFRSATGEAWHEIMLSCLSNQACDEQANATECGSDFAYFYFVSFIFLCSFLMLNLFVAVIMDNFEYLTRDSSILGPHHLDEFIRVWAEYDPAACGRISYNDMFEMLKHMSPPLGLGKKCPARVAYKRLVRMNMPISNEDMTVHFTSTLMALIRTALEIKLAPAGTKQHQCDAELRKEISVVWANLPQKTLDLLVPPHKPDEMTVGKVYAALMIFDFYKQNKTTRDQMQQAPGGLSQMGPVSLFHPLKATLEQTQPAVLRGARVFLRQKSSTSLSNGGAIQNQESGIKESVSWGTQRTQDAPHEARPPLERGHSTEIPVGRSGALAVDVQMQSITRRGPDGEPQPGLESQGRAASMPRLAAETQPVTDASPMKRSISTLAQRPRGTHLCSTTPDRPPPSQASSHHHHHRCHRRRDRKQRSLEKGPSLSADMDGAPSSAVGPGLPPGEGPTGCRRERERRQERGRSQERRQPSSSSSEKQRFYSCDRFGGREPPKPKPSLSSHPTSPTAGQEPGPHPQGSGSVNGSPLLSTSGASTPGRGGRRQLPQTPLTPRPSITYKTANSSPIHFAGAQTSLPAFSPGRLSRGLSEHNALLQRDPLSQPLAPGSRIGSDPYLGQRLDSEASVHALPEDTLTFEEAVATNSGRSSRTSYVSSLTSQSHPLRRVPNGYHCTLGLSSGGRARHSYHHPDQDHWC
Chain of human Cav2.2 (P54289 25-956 partner limits assumed): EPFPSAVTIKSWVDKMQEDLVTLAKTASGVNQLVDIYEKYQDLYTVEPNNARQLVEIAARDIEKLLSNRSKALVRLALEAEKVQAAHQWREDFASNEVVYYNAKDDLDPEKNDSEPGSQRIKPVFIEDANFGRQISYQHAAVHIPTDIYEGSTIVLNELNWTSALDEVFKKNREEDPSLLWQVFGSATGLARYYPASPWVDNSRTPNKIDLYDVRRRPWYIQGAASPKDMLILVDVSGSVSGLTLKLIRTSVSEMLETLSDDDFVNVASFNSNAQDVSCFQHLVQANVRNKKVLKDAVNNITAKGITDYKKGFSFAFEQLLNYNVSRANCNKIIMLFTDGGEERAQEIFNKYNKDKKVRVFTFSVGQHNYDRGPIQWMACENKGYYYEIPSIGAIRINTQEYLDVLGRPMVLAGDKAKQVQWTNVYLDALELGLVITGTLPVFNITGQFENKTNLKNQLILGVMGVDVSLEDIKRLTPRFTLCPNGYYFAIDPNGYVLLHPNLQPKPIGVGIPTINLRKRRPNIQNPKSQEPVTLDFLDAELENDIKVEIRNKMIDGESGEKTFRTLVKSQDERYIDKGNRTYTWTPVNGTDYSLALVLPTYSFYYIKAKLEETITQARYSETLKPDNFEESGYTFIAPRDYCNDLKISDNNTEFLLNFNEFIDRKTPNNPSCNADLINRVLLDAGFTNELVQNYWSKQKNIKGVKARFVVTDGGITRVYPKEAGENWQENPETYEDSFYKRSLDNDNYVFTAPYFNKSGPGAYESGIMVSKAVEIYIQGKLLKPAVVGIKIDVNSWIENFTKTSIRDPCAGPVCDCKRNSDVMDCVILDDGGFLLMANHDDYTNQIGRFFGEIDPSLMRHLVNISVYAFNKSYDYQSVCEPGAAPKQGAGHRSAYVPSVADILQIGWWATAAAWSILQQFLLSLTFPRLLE
Chain of human Cav2.2 (P54289 957-1103 partner limits assumed): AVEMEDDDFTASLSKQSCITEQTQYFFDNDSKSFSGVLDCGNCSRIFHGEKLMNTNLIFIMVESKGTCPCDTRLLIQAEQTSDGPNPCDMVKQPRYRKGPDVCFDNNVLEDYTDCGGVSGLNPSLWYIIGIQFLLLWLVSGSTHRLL
Chain of human Cav2.2 (P54284 whole entry partner): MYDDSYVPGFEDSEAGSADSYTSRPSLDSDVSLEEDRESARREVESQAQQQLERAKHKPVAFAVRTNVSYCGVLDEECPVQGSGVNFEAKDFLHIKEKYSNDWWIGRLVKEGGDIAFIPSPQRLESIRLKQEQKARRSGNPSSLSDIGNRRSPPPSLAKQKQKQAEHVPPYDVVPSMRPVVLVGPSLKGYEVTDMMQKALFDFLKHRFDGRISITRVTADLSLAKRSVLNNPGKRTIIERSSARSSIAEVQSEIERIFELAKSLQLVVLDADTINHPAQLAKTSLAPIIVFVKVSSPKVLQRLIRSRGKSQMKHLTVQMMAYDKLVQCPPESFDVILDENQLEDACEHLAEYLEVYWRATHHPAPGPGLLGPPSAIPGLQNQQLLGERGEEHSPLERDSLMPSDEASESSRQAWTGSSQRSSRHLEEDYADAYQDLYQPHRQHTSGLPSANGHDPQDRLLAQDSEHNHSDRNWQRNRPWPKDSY

The first experiment has as its target human Cav2.2 (Homo sapiens, UniProt Q00975). The experiment can be described thus: Assessment of calcium channel activity using FLIPR (Ca2+ influx in IMR32 cells).
Settings: not given
The experiment is classed as cell-based. The method, boiled down: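 IC50 values derive from nonlinear sigmoidal fitting of percent inhibition, relative to inhibitor-free activity, of Ca2+ influx read by FLIPR. Cells were IMR32 human neuroblastoma, plated at 1−1.2×10^5 per well and grown 48 h at 37 °C.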
A word on the IC50: it is the concentration needed to halve the response being measured. Take `Fc1ccc2[nH]c(CN[C@H]3CC[C@@H]4CN(c5cccc(C(F)(F)F)n5)C[C@@H]43)cc2c1` [Example 613, (3aR,4S,6aS)-N-[(5-fluoro-1H-indol-2-yl)methyl]-2-[6-(trifluoromethyl)pyridin-2-yl]octahydrocyclopenta[c]pyrrol-4-amine]: the IC50 turned out to be 0.91 µM. On the same count and under the same terms, the result for `CN[C@@H](CC(C)C)C(=O)N[C@@H]1CC[C@H]2CN(c3ccc(OC(F)(F)F)cc3)C[C@H]21` [Example 739, N^2-methyl-N-{(3aS,4R,6aR)-2-[4-(trifluoromethoxy)phenyl]octahydrocyclopenta[c]pyrrol-4-yl}-L-leucinamide] reads 2.85 µM; that for `CN[C@@H](CC(C)C)C(=O)N[C@H]1CC[C@@H]2CN(c3ccc(C(F)(F)F)cc3)C[C@@H]21` [Example 608, N^2-methyl-N-{(3aR,4S,6aS)-2-[4-(trifluoromethyl)phenyl]octahydrocyclopenta[c]pyrrol-4-yl}-L-leucinamide], 1.65 µM; that for `CC(C)(C)[C@H](O)C(=O)N[C@H]1CC[C@@H]2CN(c3cccc(C(F)(F)F)n3)C[C@@H]21` [Example 580, (2S)-2-hydroxy-3,3-dimethyl-N-{(3aR,4S,6aS)-2-[6-(trifluoromethyl)pyridin-2-yl]octahydrocyclopenta[c]pyrrol-4-yl}butanamide], 1.88 µM. Take `Cc1ccc(N2C[C@H]3CC[C@H](NC(=O)[C@@H]4C[C@@H](F)CN4)[C@H]3C2)cc1` [Example 652, (4R)-4-fluoro-N-[(3aR,4S,6aS)-2-(4-methylphenyl)octahydrocyclopenta[c]pyrrol-4-yl]-L-prolinamide]: the IC50 is 21.2 µM. On the same count and under the same terms, the result for `CC(C)(C)C[C@H](N)C(=O)N[C@H]1CC[C@@H]2CN(C(=O)[C@@H](N)Cc3ccccc3)C[C@@H]21` [Example 465, 4-methyl-N^1-[(3aR,4S,6aS)-2-L-phenylalanyloctahydrocyclopenta[c]pyrrol-4-yl]-L-leucinamide] reads > 30 µM; that for `CCC[C@H](NC(C)C)C(=O)N[C@H]1CC[C@@H]2CN(Cc3ccccc3)C[C@@H]21` [Example 494, N^1-[(3aR,4S,6aS)-2-benzyloctahydrocyclopenta[c]pyrrol-4-yl]-N^2-isopropyl-L-norvalinamide], > 30 µM. Same read-out and setting: for `CN[C@@H](CC(C)C)C(=O)N[C@H]1CC[C@@H]2CN(c3ccccc3OC(F)(F)F)C[C@@H]21` [Example 699, N^2-methyl-N-{(3aR,4S,6aS)-2-[2-(trifluoromethoxy)phenyl]octahydrocyclopenta[c]pyrrol-4-yl}-L-leucinamide] the value was 0.65 µM; for `CN[C@@H](CC(C)C)C(=O)N[C@H]1CC[C@@H]2CN(c3ccc(OC(F)(F)F)c(F)c3)C[C@@H]21` [Example 657, N-{(3aR,4S,6aS)-2-[3-fluoro-4-(trifluoromethoxy)phenyl]octahydrocyclopenta[c]pyrrol-4-yl}-N^2-methyl-L-leucinamide], 1.8 µM; for `O=C(N[C@H]1CC[C@H]2CN(Cc3cccc(C(F)(F)F)c3)C[C@H]21)C(O)C1CCCCC1` (stereo partly drawn) [Example 237, 2-cyclohexyl-2-hydroxy-N-{(3aS,4S,6aR)-2-[3-(trifluoromethyl)benzyl]octahydrocyclopenta[c]pyrrol-4-yl}acetamide], 1.46 µM. Turning to `CCC[C@H](NC)C(=O)N[C@H]1CC[C@@H]2CN(Cc3ccccc3)C[C@@H]21` [Example 365, N^1-[(3aR,4S,6aS)-2-benzyloctahydrocyclopenta[c]pyrrol-4-yl]-N^2-methyl-L-norvalinamide], the IC50 was > 30 µM. On the same count and under the same terms, for `CC(C)C[C@@H](C(=O)N[C@@H]1CC[C@H]2CN(S(=O)(=O)C3CC3)C[C@H]21)N1CCCC1` [Example 347, (2S)-N-[(3aS,4R,6aR)-2-(cyclopropylsulfonyl)octahydrocyclopenta[c]pyrrol-4-yl]-4-methyl-2-pyrrolidin-1-ylpentanamide] the value was > 5.2 µM; for `FC(F)(F)c1cccc(N2C[C@H]3CC[C@H](NCc4cccc5nsnc45)[C@H]3C2)n1` [Example 728, (3aR,4S,6aS)-N-(2,1,3-benzothiadiazol-4-ylmethyl)-2-[6-(trifluoromethyl)pyridin-2-yl]octahydrocyclopenta[c]pyrrol-4-amine], 0.48 µM; for `CN[C@H](C(=O)N[C@@H]1CC[C@H]2CN(Cc3ccccc3)C[C@H]21)C(C)C` [Example 351, N^1-[(3aS,4R,6aR)-2-benzyloctahydrocyclopenta[c]pyrrol-4-yl]-N^2-methyl-L-valinamide], > 30 µM. The same measure, in the same setting: for `COc1cccc2[nH]cc(CN[C@H]3CC[C@@H]4CN(c5cccc(C(F)(F)F)n5)C[C@@H]43)c12` [Example 689, (3aR,4S,6aS)-N-[(4-methoxy-1H-indol-3-yl)methyl]-2-[6-(trifluoromethyl)pyridin-2-yl]octahydrocyclopenta[c]pyrrol-4-amine] the value was 0.82 µM. Still for that read-out and setting: for `Cc1c[nH]c(CN[C@H]2CC[C@@H]3CN(c4cccc(C(F)(F)F)n4)C[C@@H]32)n1` [Example 670, (3aR,4S,6aS)-N-[(4-methyl-1H-imidazol-2-yl)methyl]-2-[6-(trifluoromethyl)pyridin-2-yl]octahydrocyclopenta[c]pyrrol-4-amine] the value was 1.17 µM; for `CC(C)(C)C[C@H](N)C(=O)N[C@H]1CC[C@@H]2CN(C(=O)[C@@H](N)CC(C)(C)C)C[C@@H]21` [Example 464, 4-methyl-N^1-[(3aR,4S,6aS)-2-(4-methyl-L-leucyl)octahydrocyclopenta[c]pyrrol-4-yl]-L-leucinamide], > 30 µM; for `FC(F)(F)c1cccc(N2C[C@H]3CC[C@H](NCc4c[nH]nc4-c4ccccc4)[C@H]3C2)n1` [Example 682, (3aR,4S,6aS)-N-[(3-phenyl-1H-pyrazol-4-yl)methyl]-2-[6-(trifluoromethyl)pyridin-2-yl]octahydrocyclopenta[c]pyrrol-4-amine], 0.87 µM.

The experiment is the same for the next values; noted with them: read-out: IC50 (μM) or percent inhibition (* indicates 3 minute incubation, otherwise 60 minute); IC50; 60 minute pre-incubation with compound; IMR32 cells, 80 mM KCl depolarization.
For `CCC[C@H](N)C(=O)N[C@H]1CC[C@@H]2CN(Cc3ccc(C(F)(F)F)cc3)C[C@@H]21` [Example 382, N^1-{(3aR,4S,6aS)-2-[4-(trifluoromethyl)benzyl]octahydrocyclopenta[c]pyrrol-4-yl}-L-norvalinamide], the IC50 is 14.4 µM. On the same count and under the same terms, the result for `CC(C)C[C@@H](C(=O)N[C@@H]1CC[C@H]2CNC[C@H]21)N(C)C(=O)OC(C)(C)C` [Example 349, tert-butyl methyl((S)-4-methyl-1-((3aS,4R,6aR)-octahydrocyclopenta[c]pyrrol-4-ylamino)-1-oxopentan-2-yl)carbamate] reads 17.6 µM; that for `CC(C)C(C(=O)N[C@H]1CC[C@@H]2CN(CCCC(c3ccc(F)cc3)c3ccc(F)cc3)C[C@@H]21)c1ccccc1` (stereo partly drawn) [Example 118, N-{(3aR,4S,6aS)-2-[4,4-bis(4-fluorophenyl)butyl]octahydrocyclopenta[c]pyrrol-4-yl}-3-methyl-2-phenylbutanamide], 1.04 µM. Same read-out and setting: for `CC(C)C[C@@H](C(=O)N[C@H]1CC[C@H]2CN(Cc3cccc(C(F)(F)F)c3)C[C@H]21)N(C)S(C)(=O)=O` [Example 167, N^2-methyl-N^2-(methylsulfonyl)-N^1-{(3aS,4S,6aR)-2-[3-(trifluoromethyl)benzyl]octahydrocyclopenta[c]pyrrol-4-yl}-L-leucinamide] the value was 1.21 µM. The same measure, in the same setting: the result for `O=C(CCC(c1ccc(F)cc1)c1ccc(F)cc1)N[C@H]1CC[C@H]2CN(Cc3cccc(C(F)(F)F)c3)C[C@H]21` (relative stereo) [Example 134, 4,4-bis(4-fluorophenyl)-N-{(3aS*,4S*,6aR*)-2-[3-(trifluoromethyl)benzyl]octahydrocyclopenta[c]pyrrol-4-yl}butanamide] reads 1.15 µM.

Another experiment concerns Sprague Dawley rats. Description: Analgesic effect against neuropathic pain, Bennett model (chronic constriction injury). The experiment is classed as in vivo. The following applies: Rattus norvegicus, 1 h; 30 mg/kg po; mechanical allodynia 60 minutes after administration; CCI rats; read-out: % MPE. The method, then: (iii) In Vivo Data—Determination of Analgesic Effect Against Neuropathic Pain—Bennett Model
Animals were prepared for testing, by use of a surgical procedure that induces neuropathic pain in one paw. IACUC guidelines for rodent survival surgery are followed. All surgical procedures are conducted on a clean, uncluttered surgical station. The area is wiped with a 70% ethanol solution before and after use. All instruments are sterilized by either autoclave or chemical sterilant (such as 2% glutaraldehyde >10 hr). Surgeons wear sterile gloves (for the initial procedure), clean lab coat or scrubs, hairnet or cap, and a half-mask respirator (when not working under a hood). Surgeons thoroughly wash their hands prior to donning sterile gloves. Gloves are disinfected in-between animals by cleansing with povidone iodine, chlorhexidine or 70% alcohol for at least 30 seconds. If multiple surgeries are performed, the instruments are cleaned and sterilized between procedures with hot glass beads (>10 seconds). To prevent thermal or chemical burns, the instruments are cooled by rinsing in sterile saline before use.
To minimize post-operative dehydration/maintain blood volume during the surgery, warmed sterile saline or Lactate Ringers solution at 10-15 mL/kg is administered subcutaneously immediately before or after surgery. This facilitates better renal function and presumably anesthesia product excretion post surgery. For all surgical procedures, anesthesia is induced with 4-5% isoflurane. Anesthesia is be maintained during surgery with 1-3% isoflurane. Following induction, the surgical site is carefully shaved and the exposed area is aseptically prepared with povidone-iodine scrub solution and 70% ethanol 2-3 times.
After site sterilization and anesthetic procedures outline above are completed, a 1.5 cm incision is made at the mid-thigh level to expose the biceps femoris and gluteous superficialis (right side), which are then separated by blunt dissection. The common sciatic nerve is exposed, isolated, and loosely ligated by four 5-0 chromic gut ligatures with <1 mm spacing between each. The surgical site is closed in layers—muscle is closed with 6.0 absorbable sutures, and the skin closed with wound clips. Animals are allowed to recover on a warming plate and are returned to their home cages when fully ambulatory. Animals are not be used for testing until at least 10 days following surgery.
Filament strengths used are: 0.4, 0.6, 1.0, 2, 4, 6, 8, and 15 g. […] Filaments are applied perpendicular to the mid-plantar paw surface with enough force to cause slight buckling and held in place for 6-8 seconds. Positive responses include an abrupt withdrawal of the paw from the stimulus or flinching behavior immediately following removal of the stimulus. The maximum force applied will be 15 g. […] All compounds were orally administered in 10% dimethyl sulfoxide/polyethylene glycol at a volume of 2.0 mL/kg, and mechanical allodynia was determined 60 minutes following compound administration. Data are reported as log g values and the percentage of maximum possible effect (% MPE) is calculated using log g values with the formula: % MPE=(log [observed PWT in grams]−log [mean PWT vehicle])/(log [15]−log [mean PWT vehicle])*100 All statistical procedures are run on log g values.
As to `Fc1ccc2[nH]c(CN[C@H]3CC[C@@H]4CN(c5cccc(C(F)(F)F)n5)C[C@@H]43)cc2c1` [Example 613, (3aR,4S,6aS)-N-[(5-fluoro-1H-indol-2-yl)methyl]-2-[6-(trifluoromethyl)pyridin-2-yl]octahydrocyclopenta[c]pyrrol-4-amine], the inhibition in vivo at 30 mg/kg is 61%.

Regarding `CN[C@@H](CC(C)C)C(=O)N[C@@H]1CC[C@H]2CN(c3ccc(OC(F)(F)F)cc3)C[C@H]21` [Example 739, N^2-methyl-N-{(3aS,4R,6aR)-2-[4-(trifluoromethoxy)phenyl]octahydrocyclopenta[c]pyrrol-4-yl}-L-leucinamide], the inhibition in vivo at 30 mg/kg is 63%. Consider `CN[C@@H](CC(C)C)C(=O)N[C@H]1CC[C@@H]2CN(c3ccc(C(F)(F)F)cc3)C[C@@H]21` [Example 608, N^2-methyl-N-{(3aR,4S,6aS)-2-[4-(trifluoromethyl)phenyl]octahydrocyclopenta[c]pyrrol-4-yl}-L-leucinamide], for which the inhibition in vivo at 30 mg/kg is 79%. Regarding `CC(C)(C)[C@H](O)C(=O)N[C@H]1CC[C@@H]2CN(c3cccc(C(F)(F)F)n3)C[C@@H]21` [Example 580, (2S)-2-hydroxy-3,3-dimethyl-N-{(3aR,4S,6aS)-2-[6-(trifluoromethyl)pyridin-2-yl]octahydrocyclopenta[c]pyrrol-4-yl}butanamide], the inhibition in vivo at 30 mg/kg worked out at 5%.
